Data as given in patent US8383581B2, “Short-chain peptides as parathyroid hormone (PTH) receptor agonist” (Cadila Healthcare Limited, priority 2009, dated 2013).
Where a SMILES comes first, the peptide text is derived from it. [ ]: non-standard residue; d: D form. ξ: configuration not given here. ξBip(2'-Et-4'-OMe) = CCc1cc(OC)ccc1-c1ccc(CC(N)C(=O)O)cc1; Arg(NO2) = N=C(NCCC[C@H](N)C(=O)O)N[N+](=O)[O-]; αMePhe(2,6-F2) = C[C@](N)(Cc1c(F)cccc1F)C(=O)O; ξαMePhe(2,6-F2) = CC(N)(Cc1c(F)cccc1F)C(=O)O; ξαMePhe(2-F) = CC(N)(Cc1ccccc1F)C(=O)O; hhPhe = N[C@@H](CCCc1ccccc1)C(=O)O; hArg = N=C(N)NCCCC[C@H](N)C(=O)O; Cit = NC(=O)NCCC[C@H](N)C(=O)O; Nle = CCCC[C@H](N)C(=O)O; Ac5c = NC1(C(=O)O)CCCC1; Ac3c = NC1(C(=O)O)CC1; Aib = CC(C)(N)C(=O)O

Legend:
Format in all cases: in vitro ADME
[1] = Stability of peptides in simulated intestinal fluid (pH 7.5); conditions: pH 7.5; for half-life (t1/2) in simulated intestinal fluid / half-life: simulated gi fluid; for % degradation of peptides in 24 h when incubated with simulated intestinal fluid: 2 μM
Method in brief: (§1)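 Peptides at 2 μM final incubated 0–24 h at 37 °C (50 mM triethanolamine-HCl, pH 7.8) in each matrix, matrix level set to degrade ~50% PTH(1-34) in 1 h; TFA-quenched, C18 HPLC at 206 nm with ESI-MS peak identification; percent degradation from peak areas at each time point.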

[2] = Stability of peptides in human plasma; conditions: human, plasma; for metabolised at 24 h, 2 μM: pH 7.8
Method in brief: as §1

[3] = Stability of peptides in human liver microsomes; conditions: human, microsomes; for % degradation of peptides in 24 h when incubated with liver microsomes: 2 μM, pH 7.8
Method in brief: as §1

[4] = Stability of peptides in simulated gastric fluid (pH 1.5; HCl, NaCl and Pepsin); conditions: pH 1.5; for % degradation of peptides in 24 h when incubated with simulated gastric fluid: 2 μM; for half-life (t1/2) in simulated gastric fluid / half-life: simulated gi fluid

Structure (SMILES)	half-life (t1/2) in simulated intestinal fluid [1]	% degradation of peptides in 24 h when incubated with simulated intestinal fluid [1] [%]	half-life [2] [h]	metabolised at 24 h, 2 μM [2] [%]	half-life [3] [h]	% degradation of peptides in 24 h when incubated with liver microsomes [3] [%]	% degradation of peptides in 24 h when incubated with simulated gastric fluid [4] [%]	half-life (t1/2) in simulated gastric fluid [4]	half-life [1] [h]	half-life (t1/2) in human plasma [2]	half-life [4] [h]	half-life (t1/2) in liver microsomes [3]
CCCC[C@H](NC(=O)[C@](C)(Cc1c(F)cccc1F)NC(=O)[C@H](CCC(N)=O)NC(=O)[C@@H](NC(=O)[C@H](CCC(=O)O)NC(=O)C(C)(C)NC(=O)[C@@H](NC(=O)C(C)(C)N)C(C)C)[C@@H](C)CC)C(=O)N[C@@H](Cc1c[nH]cn1)C(=O)N[C@@H](CCC(N)=O)C(=O)NC(C)(C)C(=O)NC(C)(C)C(=O)N[C@@H](CCCNC(N)=O)C(=O)N[C@@](C)(Cc1c(F)cccc1F)C(N)=O [Seq. ID. 550] (H-[Aib]V[Aib]EIQ[αMePhe(2,6-F2)][Nle]HQ[Aib][Aib][Cit][αMePhe(2,6-F2)]-NH2)	(6) h	50	8	80	1	82	13	(8) h				
CCCC[C@H](NC(=O)C(C)(Cc1c(F)cccc1F)NC(=O)[C@H](CCC(N)=O)NC(=O)[C@@H](NC(=O)[C@H](CCC(=O)O)NC(=O)C(C)(C)NC(=O)[C@@H](NC(=O)C1(N)CCCC1)C(C)C)[C@@H](C)CC)C(=O)N[C@@H](Cc1c[nH]cn1)C(=O)N[C@@H](CCC(N)=O)C(=O)NC(C)(C)C(=O)NC(C)(C)C(=O)NC(C)(C)C(=O)NC(C)(Cc1ccccc1F)C(N)=O (some centres unmarked) [Seq. ID. 560] (H-[Ac5c]V[Aib]EIQ[ξαMePhe(2,6-F2)][Nle]HQ[Aib][Aib][Aib][ξαMePhe(2-F)]-NH2)	(6) h	43	8	78	1	80	14	(8) h				
CCCC[C@H](NC(=O)C(C)(Cc1ccccc1F)NC(=O)[C@H](CCC(N)=O)NC(=O)[C@@H](NC(=O)[C@H](CCC(=O)O)NC(=O)C(C)(C)NC(=O)[C@@H](NC(=O)C(C)(C)N)C(C)C)[C@@H](C)CC)C(=O)N[C@@H](Cc1c[nH]cn1)C(=O)N[C@@H](CCC(N)=O)C(=O)NC(C)(C)C(=O)NC(C)(C)C(=O)NC(C)(Cc1c(F)cccc1F)C(=O)NC(C)(Cc1ccccc1F)C(N)=O (some centres unmarked) [Seq. ID. 570] (H-[Aib]V[Aib]EIQ[ξαMePhe(2-F)][Nle]HQ[Aib][Aib][ξαMePhe(2,6-F2)][ξαMePhe(2-F)]-NH2)		100		71	0.5	100	100		0.5	(9) h	0.5	
CCCC[C@H](NC(=O)C(C)(Cc1ccccc1F)NC(=O)[C@H](CCC(N)=O)NC(=O)[C@@H](NC(=O)[C@H](CCC(=O)O)NC(=O)C(C)(C)NC(=O)[C@@H](NC(=O)C1(N)CCCC1)C(C)C)[C@@H](C)CC)C(=O)N[C@@H](Cc1c[nH]cn1)C(=O)N[C@@H](CCC(N)=O)C(=O)NC(C)(C)C(=O)NC(C)(C)C(=O)NC(C)(Cc1c(F)cccc1F)C(=O)NC(C)(Cc1c(F)cccc1F)C(N)=O (some centres unmarked) [Seq. ID. 580] (H-[Ac5c]V[Aib]EIQ[ξαMePhe(2-F)][Nle]HQ[Aib][Aib][ξαMePhe(2,6-F2)][ξαMePhe(2,6-F2)]-NH2)	(6) h	46	8	75	1	83	12	(8) h				
CCCC[C@H](NC(=O)C(C)(Cc1c(F)cccc1F)NC(=O)[C@H](CCC(N)=O)NC(=O)[C@@H](NC(=O)[C@H](CCC(=O)O)NC(=O)C(C)(C)NC(=O)[C@@H](NC(=O)C(C)(C)N)C(C)C)[C@@H](C)CC)C(=O)N[C@@H](Cc1c[nH]cn1)C(=O)N[C@@H](CCC(N)=O)C(=O)NC(C)(C)C(=O)NC(C)(C)C(=O)N[C@@H](CCCNC(=N)N[N+](=O)[O-])C(=O)NC(C)(Cc1ccccc1F)C(N)=O (some centres unmarked) [Seq. ID. 590] (H-[Aib]V[Aib]EIQ[ξαMePhe(2,6-F2)][Nle]HQ[Aib][Aib][Arg(NO2)][ξαMePhe(2-F)]-NH2)		00	> 24	0		35	00		> 24		> 24	(5) h
CCCC[C@H](NC(=O)[C@H](CC(C)C)NC(=O)[C@H](CCC(N)=O)NC(=O)[C@@H](NC(=O)[C@H](CCC(=O)O)NC(=O)C1(NC(=O)[C@@H](NC(=O)C2(N)CC2)C(C)C)CC1)[C@@H](C)CC)C(=O)N[C@@H](Cc1c[nH]cn1)C(=O)N[C@@H](CCC(N)=O)C(=O)N[C@@H](CCCCNC(=N)N)C(=O)N[C@@H](C)C(=O)N[C@@H](CCCCN)C(=O)NC(Cc1ccc(-c2ccc(OC)cc2CC)cc1)C(=O)N[C@@H](CCCc1ccccc1)C(N)=O (some centres unmarked) [Seq. ID. 610] (H-[Ac3c]V[Ac3c]EIQL[Nle]HQ[hArg]AK[ξBip(2'-Et-4'-OMe)][hhPhe]-NH2)	(6) h	40	8	71	1	78	14	(8) h				
CCc1cc(OC)ccc1-c1ccc(CC(NC(=O)[C@H](CCCCN)NC(=O)[C@H](C)NC(=O)[C@H](CCCCNC(=N)N)NC(=O)[C@H](CCC(N)=O)NC(=O)[C@H](Cc2c[nH]cn2)NC(=O)[C@H](CCSC)NC(=O)[C@H](CC(C)C)NC(=O)[C@H](CCC(N)=O)NC(=O)[C@@H](NC(=O)[C@H](CCC(=O)O)NC(=O)C(C)(C)NC(=O)[C@@H](NC(=O)C2(N)CCCC2)C(C)C)[C@@H](C)CC)C(N)=O)cc1 (some centres unmarked) [Seq. ID. 650] (H-[Ac5c]V[Aib]EIQLMHQ[hArg]AK[ξBip(2'-Et-4'-OMe)]-NH2)	(6) h	41	8	70	1	77	15	(8) h				
CCCC[C@H](NC(=O)[C@H](CC(C)C)NC(=O)[C@H](CCC(N)=O)NC(=O)[C@@H](NC(=O)[C@H](CCC(=O)O)NC(=O)C1(NC(=O)[C@@H](NC(=O)C2(N)CC2)C(C)C)CC1)[C@@H](C)CC)C(=O)N[C@@H](Cc1c[nH]cn1)C(=O)N[C@@H](CCC(N)=O)C(=O)N[C@@H](CCCCNC(=N)N)C(=O)N[C@@H](C)C(=O)N[C@@H](CCCNC(=N)N[N+](=O)[O-])C(=O)NC(Cc1ccc(-c2ccc(OC)cc2CC)cc1)C(=O)N[C@@H](CCCc1ccccc1)C(N)=O (some centres unmarked) [Seq. ID. 690] (H-[Ac3c]V[Ac3c]EIQL[Nle]HQ[hArg]A[Arg(NO2)][ξBip(2'-Et-4'-OMe)][hhPhe]-NH2)	(6) h	42	8	70	1	78	12	(8) h				
CCCC[C@H](NC(=O)C(C)(Cc1c(F)cccc1F)NC(=O)[C@H](CCC(N)=O)NC(=O)[C@@H](NC(=O)[C@H](CCC(=O)O)NC(=O)C1(NC(=O)[C@@H](NC(=O)C2(N)CCCC2)C(C)C)CC1)[C@@H](C)CC)C(=O)N[C@@H](Cc1c[nH]cn1)C(=O)N[C@@H](CCC(N)=O)C(=O)N[C@@H](CCCCNC(=N)N)C(=O)N[C@@H](C)C(=O)N[C@@H](CCCNC(=N)N[N+](=O)[O-])C(=O)NC(C)(Cc1c(F)cccc1F)C(=O)N[C@@H](CCCc1ccccc1)C(N)=O (some centres unmarked) [Seq. ID. 710] (H-[Ac5c]V[Ac3c]EIQ[ξαMePhe(2,6-F2)][Nle]HQ[hArg]A[Arg(NO2)][ξαMePhe(2,6-F2)][hhPhe]-NH2)		00	> 24	0		35	00		> 24		> 24	(5) h
CCCC[C@H](NC(=O)C(C)(Cc1c(F)cccc1F)NC(=O)[C@H](CCC(N)=O)NC(=O)[C@@H](NC(=O)[C@H](CCC(=O)O)NC(=O)C1(NC(=O)[C@@H](NC(=O)C(C)(C)N)C(C)C)CC1)[C@@H](C)CC)C(=O)N[C@@H](Cc1c[nH]cn1)C(=O)N[C@@H](CCC(N)=O)C(=O)N[C@@H](CCCCNC(=N)N)C(=O)N[C@@H](C)C(=O)N[C@@H](CCCNC(=N)N[N+](=O)[O-])C(=O)NC(C)(Cc1ccccc1F)C(=O)N[C@@H](CCCc1ccccc1)C(N)=O (some centres unmarked) [Seq. ID. 720] (H-[Aib]V[Ac3c]EIQ[ξαMePhe(2,6-F2)][Nle]HQ[hArg]A[Arg(NO2)][ξαMePhe(2-F)][hhPhe]-NH2)		00	> 20	10	2	86	50		> 24		4	
